Reference: patent publication US20130072506A1, “6,8-DISUBSTITUTED PURINE COMPOSITIONS” (priority 2011, published 2013)

Legend:
SKH-1 hairless mice [1] = experiment: Hairless mouse assay: skin moisture content; format: in vivo; settings: compared with the vehicle
Source text: Evaluation of cutaneous effects of new topical compounds in the hirless mouse assay. The purpose of this study was to evaluate new topical compounds for their safety and efficacy as topical skin anti-aging treatments. The hairless mouse model is a well established model for studying the treatments of photoaging. […] The present study was used to investigate a new class of anti-aging compounds in comparison to classical ones. […] Topical compounds and vehicle controls were be applied daily (Monday-Friday) for 3 weeks to the dorsal skin of hairless mice. At baseline (prior to the 1st treatment), and weekly, the dorsal skin was measured for: transepidermal water loss (TEWL); skin moisture content; and skin elasticity.
(§1) Experimental Design. 48 female SKH-1 hairless mice (5 weeks old, 20-25 grams, Charles River Laboratories, Wilmington, Mass.) are individually housed in filter-top cages, and acclimated for 5-7 days after delivery. The mice are divided into 8 treatment groups (n=6), including two different control groups (untreated control, vehicle control) and a therapeutic control (tretinoin 0.05% Renova™ cream). Cage cards are marked to indicate treatment groups 1-8. Water and mouse chow are provided ad libitum.
Skin Moisture Content & Elasticity. The measurements of skin moisture content and skin elasticity are important noninvasive methods used to characterize the effects of moisturizers and anti-wrinkle effects on skin. A DermaLab™ combination instrument were used to measure the skin moisture content and elasticity of the target skin sites at baseline and at weekly intervals. This instrument is equipped with dual probes which are placed on the skin surface and a quantitative measurement taken of the respective parameters and the measurements recorded on an integrated computer. Mean measurements was determined for each treatment group over time, and comparative statistics used to evaluate product effectiveness.
(§2) Topical Treatments. Beginning on Treatment Day 1, test products are applied topically each morning (Monday through Friday) after erythema evaluations for 3 weeks. Using a positive displacement pipette, 20 mg of each agent is applied to a 2 cm×2 cm area of the center midline of the back. The material was spread across the treatment area with the pipette tip.

SKH-1 hairless mice [2] = experiment: Hairless mouse assay: epidermal bromodeoxyuridine (BrdU) staining; format: in vivo; settings: epidermal BrdU staining after 3 weeks of topical treatment, 0.1% (tretinoin 0.05%)
Source text: This study determined the effect of topical compound formulations on epidermal cell proliferation using bromodeoxyuridine as an immunohistochemical marker of cell proliferation. Histological examination of the treated and control skin were used to determine cutaneous effects of the topical compounds. Topical tretinoin 0.05% (Renova™) was used as a therapeutic control.
as §1, §2
Bromodeoxyuridine Injection. All animal groups are injected with bromodeoxyuridine (100 mg/kg) I.P. 4 hours after the final application. Animals are sacrificed by CO2 inhalation 3 hours later followed by cervical dislocation. The test sites are excised, and 6 mm punch biopsies are obtained from each treatment site, and from untreated controls. Biopsies are placed into labeled vials containing 4% neutral buffered formalin for paraffin embedding and anti-BrdU staining.
Bromodeoxyuridine Immunohistochemical Staining. Paraffin sections are cut to a […] thickness and stained using the BrdU Immuno-histochemistry kit (X1545K from Exalpha Biologicals, Inc.) and a standard staining protocol. The slides are weakly counterstained in Mayer's hematoxylin and scored under a light microscope for the number of BrdU-positive cells per mm of epidermis for each section. The data are expressed as mean BrdU-positive cells/mm for each treatment group. Differences in BrdU labeling in the treatment groups are statistically analyzed using the Students t-test. Representative photographs are taken of the histological sections of the BrdU-positive staining cells.

[3] = system: cytokinin-dependent tobacco callus; experiment: Growth of cytokinin-dependent tobacco callus (plant cell division); format: cell-based, Nicotiana tabacum L. cv. Wisconsin 38; settings: for Activity (%): at concentration with highest activity, activity of kinetin set at 100%
Description: The effect on plant cell division. Cytokinin-dependent tobacco callus Nicotiana tabacum L. cv. Wisconsin 38 was maintained at 25° C. in darkness on modified MS medium, containing 4 μmol/l nicotinic acid, 2.4 μmol/l pyridoxine hydrochloride, 1.2 μmol/l thiamine, 26.6 μmol/l glycine, 1.37 μmol/l glutamine, 1.8 μmol/1 myo-inositol, 30 g/l of sucrose, 8 g/l of agar, 5.37 μmol/l NAA and 0.5 μmol/l BAP. Subcultivation was carried out every three weeks. Fourteen days before the bioassay, the callus tissue was transferred to the media without BAP. Biological activity was determined from the increase in fresh callus weight after four weeks of cultivation. Five replicates were prepared for each cytokinin concentration and the entire test was repeated twice. From the obtained data, the concentration with highest activity was selected for each compound tested. Relative activity at this concentration was calculated (see Table 4 below).
The cytokinins to be tested were dissolved in dimethylsulfoxide (DMSO) and the solution brought up to 10^−3M with distilled water.

excised wheat leaf tips = experiment: Senescence inhibition on winter wheat leaf segments (chlorophyll retention); format: in vivo, Triticum aestivum cv. Hereward; settings: for Activity (%): at concentration with highest activity, activity of 10^−4 M kinetin set at 100%; for Concentration with highest activity: retention of chlorophyll in excised wheat leaf tips, 96 hours in the dark
Description: Senescence Inhibition by Novel Compounds Tested on Winter Wheat Leaf Segments. Seeds of winter wheat, Triticum aestivum cv. Hereward, were washed under running water for 24 hours and then sown on vermiculite soaked with Knop's solution. They were placed in the grown chamber at 25° C. with a 16/8 hours light period at […]·m^−2·s^−1. After 7 days, the first leaf was fully developed and the second leaf had started to grow. A tip section of the first leaf, approximately 35 mm long, was removed from 5 seedlings and trimmed slightly to a combined weight of 100 mg. The basal ends of the five leaf tips were placed in the wells of a microtiter polystyrene plate containing […] of a cytokinin solution each. The entire plate was inserted into a plastic box lined with paper tissues soaked in distilled water to prevent leaf sections from drying out. After 96 hours incubation in the dark at 25° C., the leaves were removed and chlorophyll extracted by heating at 80° C. for 10 min in 5 ml of 80% ethanol (v/v). The sample volume was then restored to 5 ml by the addition of 80% ethanol (v/v). The absorbance of the extract was recorded at 665 nm. In addition, chlorophyll extracts from fresh leaves and leaf tips incubated in deionized water were measured. The set up of the assay is shown on FIG. 1. From the obtained data, the concentration with highest activity was selected for each compound tested. Relative activity of the compound at this concentration was calculated (see Table 2 below). […] The values shown are means of five replicates and the whole experiment was repeated twice.
The compounds to be tested were dissolved in dimethylsulfoxide (DMSO) and the solution brought up to 10^−3 M with distilled water.

[4] = system: Amaranthus caudatus cotyledon/hypocotyl explants; experiment: Amaranthus bioassay (betacyanin content); format: in vivo, Amaranthus caudatus var. atropurpurea; settings: for Activity (%): at concentration with highest activity, activity of kinetin set at 100%; for Concentration with highest activity: betacyanin content, 48 hours in darkness
Description: Testing of Novel Compounds in Amaranthus bioassay. Standard Amaranthus bioassay was performed with several modifications. The seeds of Amaranthus caudatus var. atropurpurea were surface-sterilized in 10% N-chlorobenzene sulfonamide (w/v) for 10 min and washed 5 times in deionized water. They were placed in 14 cm Petri dishes containing paper tissues saturated with deionized water. After 72 hours of cultivation at 25° C. in darkness, the roots of the seedlings were cut off. The explants, consisting of two cotyledons and hypocotyls, were placed in 5 cm Petri dishes on two layers of filter paper soaked in 1 ml of incubation medium containing 10 μmol Na2HPO4—KH2PO4, pH 6.8, 5 μmol tyrosine and the cytokinin to be tested. There were 20 explants per dish. The procedure was carried out under a green safe light in a darkroom. After a 48 hours of incubation at 25° C. in darkness, betacyanin was extracted by freezing the explants in 4 ml 3.33 μM acetic acid. The concentration of betacyanin was determined by comparing the absorbance at 537 nm and 620 nm as follows: DA=A537nm−A620nm. From the obtained data, the concentration with highest activity was selected for each compound tested. Relative activity of the compound at this concentration was calculated (see Table 3 below). […] The values shown in Table 3 are means of five replicates and the entire test was repeated twice.
The cytokinins to be tested were dissolved in dimethylsulfoxide (DMSO) and the solution brought up to 10^−3 M with distilled water.

[5] = system: mitochondria of ASF-2 cells; experiment: JC-1 staining of mitochondria; format: cell-based, human; settings: 3 days pre-treatment of dermal fibroblasts
Description: All cell culture experiments were performed on early and mid passage cultures (about 20 to 40% lifespan completed) of normal human skin fibroblast line, designated ASF-2. In order to check the effects of test compounds on senescent cells, late passage cells with more than 90% lifespan completed were used. ASF-2 cell line was established from a mammary skin biopsy obtained from a young, non-smoking and healthy […] at the time of breast reduction operation. Normal culture conditions of medium (DMEM) containing antibiotics, 10% foetal calf serum, and incubation at 37° C. with 95% humidity were used. The effects of the test compounds were determined using the following procedures.
Briefly, stock solution of JC-1 (Sigma, M2128) was made at 1 mg/ml in dimethyl sulfoxide. Fresh staining solution […] was prepared by diluting the stock solution in warm (37° C.) culture medium supplemented with 10% calf serum (final conc. 1 μg/ml). Around 3000 cells/ml were seeded in 4 chambered flasks. After three days of incubation, medium is aspirated and one ml of JC-1 staining medium is added, after incubation for 10 mins a cover slip is quickly added and viewed under fluorescent microscope at excitation wavelengths of 488 and 647 nm. […] On depolarization, the orange red punctate staining is replaced by diffuse green monomer fluorescence.

c1coc(CNc2ncnc3c2ncn3C2CCCCO2)c1 (stereo not shown) [6-Furfurylamino-9-(2-tetrahydropyranyl)purine]
average moisture content (SKH-1 hairless mice [1]): higher than that of the vehicle | Mean Nuclei Stained (SKH-1 hairless mice [2]): 5.3 ± 4.2

Sc1nc2ncnc(NCc3ccccc3)c2[nH]1 [Compound 138, 6-Benzylamino-8-sulphanylpurine]
Activity (%) [3]: 156.66% | melting point: 267 to 269 °C | Activity (%) (excised wheat leaf tips): 140.45 (±3) % | Concentration with highest activity (excised wheat leaf tips): 10^−4 mol/l | Activity (%) [4]: 111.25% | Concentration with highest activity [4]: 10^−4 mol/l

CCOC(=O)c1nc2ncnc(NCc3ccccc3)c2[nH]1 [Compound 195, 6-Benzylamino-8-ethoxycarbonylpurine]
melting point: 181 to 185 °C | Activity (%) (excised wheat leaf tips): 122.06 (±2) % | Concentration with highest activity (excised wheat leaf tips): 10^−4 mol/l | Activity (%) [4]: 122.55% | Concentration with highest activity [4]: 10^−4 mol/l

C/C(=C\CNc1ncnc2[nH]cnc12)CO [Zeatin]
average moisture content (SKH-1 hairless mice [1]): higher than that of the vehicle | Mean Nuclei Stained (SKH-1 hairless mice [2]): 3.5 ± 3.4 mm

c1coc(CNc2ncnc3[nH]cnc23)c1 [kinetin, reference compound]
Activity (%) [3]: 100% | range of the optimal concentration ([3]; tobacco callus growth): sharp concentration optimum | Activity (%) (excised wheat leaf tips): 100% | Concentration with highest activity (excised wheat leaf tips): 10^−4 mol/l | Activity (%) [4]: 100% | Concentration with highest activity [4]: 10^−5 mol/l

CN[C@@H]1C[C@H]2O[C@@](C)([C@@H]1OC)n1c3ccccc3c3c4c(c5c6ccccc6n2c5c31)C(=O)NC4 [staurosporine, reference compound]
JC-1 staining [5]: drastically reduced the uptake of JC-1 and J-aggregate formation
